Literature values in patent publication US20080031898A1, “Compositions and methods to increase the effect of a neurotoxin treatment” (priority 2004, published 2008).

System: BRAF(V600E) mutant xenografts
Conditions: Solit et al, Nature 2006

O=C(NOC[C@H](O)CO)c1ccc(F)c(F)c1Nc1ccc(I)cc1F [PD0325901]
suppression of xenograft growth: completely suppresses the growth
